According to patent US10626113B2, “Phosphodiesterase inhibitors and uses thereof” (THE TRUSTEES OF COLUMBIA UNIVERSITY IN THE CITY OF NEW YORK, priority 2012, dated 2020):
Where two headings read alike, the source gives them in different places.

Experiments:
APP/PS1 mice = assay: 2-day radial arm water maze (reference memory); type: in vivo; settings: 3 mg/kg i.p. for 3 weeks
Experimental: The radial arm water maze task, a hybrid of the classic Morris Water Maze and the radial arm land maze, was performed as described in J. Alamed, D. M. Wilcock, D. M. Diamond, M. N. Gordon, D. Morgan, Two-day radial-arm water maze learning and memory task; robust resolution of amyloid-related memory deficits in transgenic mice, Nat. Prot. 1 (2006) 1671-1679, herein incorporated by reference in its entirety. The mouse had to swim in 6 alleys (arms) radiating from a central area until it found a hidden (submerged) platform at the end of one of the arms, based on visual cues placed in the room. The first day of the protocol was a training day on which mice were trained to identify the platform location by alternating between a visible and a hidden platform in a goal arm. The final 3 trials on that day and all 15 trials on day 2 used a hidden escape platform to force mice to use spatial cues to identify the location of the goal arm. […] The number of incorrect arm entries (entries to arms with no platform) was counted. […] Failure to select an arm after 15 sec was counted as an error and the mouse was returned to the start arm. […] For data analysis, averages for each mouse were calculated using blocks of 3 trials. […]

hippocampal cGMP levels = assay: Hippocampal cGMP assay after foot shock; type: in vivo, mice
Experimental: The hippocampal samples were extracted and snap frozen in liquid nitrogen. Levels of cGMP were quantitated by Enzyme Immunoassay procedure (Cayman Chemical Company, Item no. 581021) following the manufacturer's guidelines in duplicate. cGMP levels were normalized with the protein concentration calculated using BCA Protein Assay Reagent (Thermo Scientific).
cGMP levels in adult mice after treatment with compound H were measured. In a series of preliminary experiments, foot shock induces an immediate increase in cGMP levels in the hippocampus (FIG. 1). Concentration of cGMP was measured by enzyme immunoassay. Basal represents cGMP levels without foot shock. Values are the mean of duplicate determinations. Error bars show S.E.M. (n=3 per group); *p<0.01; ^‡p=0.033.

PDE5 = PDE5 (Homo sapiens (Human), UniProt O76074); assay: PDE5 inhibition assay (BPS PDE assay kit, fluorescence polarization); type: biochemical; settings: Table 1; 100 nM FAM-cGMP
Experimental: Materials and Methods: PDE5 inhibition was assayed at BPS Bioscience (San Diego, Calif.) using BPS PDE assay kits (BPS Catalog number 60300, enzyme lot 090810). Test compounds were supplied as liquid solutions of 10 mM concentration in DMSO. Sildenafil, used as a standard was dissolved in DMSO. Intermediate dilutions were 10% DMSO in PDE assay buffer and tests at ranges from 0.1 to 100 nM. 0.1 ng of enzyme was used per reaction, and the substrate was 100 nM FAM-cGMP.
Assay conditions: A series of dilutions of the test compounds were prepared with 10% DMSO in assay buffer and 5 μl of the dilution was added to a 50 μl reaction so that the final concentration of DMSO is 1% in all of reactions. The enzymatic reactions were conducted at room temperature for 60 minutes in a 50 μl mixture containing PDE assay buffer, 100 nM FAM-cAMP or 100 nM FAM-cGMP, a PDE enzyme, and the test compound. After the enzymatic reaction, 100 μl of a binding solution (1:100 dilution of the binding agent with the binding agent diluent) was added to each reaction and the reaction was performed at room temperature for 60 minutes. Fluorescence intensity was measured at an excitation of 485 nm and an emission of 528 nm using a Tecan Infinite M1000 microplate reader.
Data analysis: PDE activity assays were performed in duplicate at each concentration. Fluorescence intensity is converted to fluorescence polarization using the Tecan Magellan6 software. The fluorescence polarization data were analyzed using the computer software, Graphpad Prism. The fluorescence polarization (FPt) in absence of the compound in each data set was defined as 100% activity. In the absence of PDE and the compound, the value of fluorescent polarization (FPb) in each data set was defined as 0% activity. The percent activity in the presence of the compound was calculated according to the following equation: % activity=(FP−FPb)/(FPt−FPb)×100%, where FP=the fluorescence polarization in the presence of the compound.
The values of % activity versus a series of compound concentrations were then plotted using non-linear regression analysis of Sigmoidal dose-response curve generated with the equation Y=B+(T−B)/1+10^((LogEC50-X)×Hill Slope), where Y=percent activity, B=minimum percent activity, T=maximum percent activity, X=logarithm of compound and Hill Slope=slope factor or Hill coefficient. The IC50 value was determined by the concentration causing a half-maximal percent activity.

[1] = Pharmacokinetic study in mice; type: in vivo; settings: 25 mg/kg i.p.

Question: For `COc1ccc(CNc2c3c(nc4ccc(C#N)cc24)CCN(C(C)=O)C3)cc1Cl` [Compound H, 2-acetyl-10-[(3-chloro-4-methoxybenzyl)amino]-1,2,3,4-tetrahydrobenzo[b][1,6]naphthyridine-8-carbonitrile], which “effect on reference memory of WT mice (2-day RAWM)” value (APP/PS1 mice) is on record?
Answer: The value was “no effect”.

Question: What about the “hippocampal cGMP level” value (hippocampal cGMP levels; 3 mg/kg i.p. 30 min before foot shock, 10 sec after shock) of the same compound?
Answer: The value was 0.48 ± 0.014 pmol/mg.

Question: What about the “hippocampal cGMP level” value (hippocampal cGMP levels; 3 mg/kg i.p. 30 min before foot shock, 60 sec after shock) of the same compound?
Answer: Its value is 0.58 ± 0.033 pmol/mg.

Question: And the “hippocampal cGMP level” value (hippocampal cGMP levels; 3 mg/kg i.p. 30 min before foot shock, 180 sec after shock)?
Answer: The value was 0.58 ± 0.044 pmol/mg.

Question: What about the “hippocampal cGMP level” value (hippocampal cGMP levels; 10 mg/Kg i.p. 30 min before foot shock, 10 sec after shock) of the same compound?
Answer: The value was 0.56 ± 0.033 pmol/mg.

Question: What about the “hippocampal cGMP level” value (hippocampal cGMP levels; 10 mg/Kg i.p. 30 min before foot shock, 60 sec after shock) of the same compound?
Answer: The value was 0.70 ± 0.028 pmol/mg.

Question: And the “hippocampal cGMP level” value (hippocampal cGMP levels; 10 mg/Kg i.p. 30 min before foot shock, 180 sec after shock)?
Answer: The value was 0.63 ± 0.013 pmol/mg.

Question: And the IC50 (PDE5)?
Answer: The IC50 was 0.056 nM.

Question: And the “Cmax, brain” value ([1]; male C57Bl6 mice)?
Answer: The value was 492.25 ng/g.

Question: And the “Tmax, brain” value ([1]; male C57Bl6 mice)?
Answer: Its value is 15 min.

Question: What about the “Tmax, plasma” value ([1]; male C57Bl6 mice) of the same compound?
Answer: Its value is 15 min.

Question: What about the “t1/2 elimination half-life, brain” value ([1]; male C57Bl6 mice) of the same compound?
Answer: Its value is 39 min.

Question: And the “t1/2 elimination half-life, plasma” value ([1]; male C57Bl6 mice)?
Answer: The value was 64.2 min.

Question: What about the brain/plasma Cmax ratio ([1]; male, C57Bl6, mouse, brain/plasma, ip, 25 mg/kg) of the same compound?
Answer: The brain/plasma Cmax ratio was 0.31.

Question: What about the MRT ([1]; mouse, brain, ip, male C57Bl6 mice, read-out: MRT Mean Residence Time, brain) of the same compound?
Answer: Its MRT is 57 min.

Question: What about the Cmax ([1]; mouse, plasma, ip, male C57Bl6 mice) of the same compound?
Answer: Its Cmax is 1570 ng/mL.

Question: And the MRT ([1]; mouse, plasma, ip, male C57Bl6 mice, read-out: MRT Mean Residence Time, plasma)?
Answer: Its MRT is 93.6 min.
